In ChEMBL document CHEMBL1155243, “In vitro erythrocytic uptake studies of artemisinin and selected derivatives using LC-MS and 2D-QSAR analysis of uptake in parasitized erythrocytes” (Bioorg Med Chem, 2009):

Tests used:
Conditions in all cases: erythrocyte
[1] = Drug uptake in human type-A erythrocytes infected with Plasmodium falciparum D6 at 3.55 uM after 2 hrs by LC-MS analysis; assay type: ADME, cell-based
[2] = Toxicity in human type-A RBC assessed as hematocrit at 3.55 uM after 2 hrs; assay type: cell-based
[3] = Drug uptake in human type-A RBC at 3.55 uM after 2 hrs by LC-MS analysis; assay type: ADME, cell-based

SMILES	Drug uptake [1] [%]	Activity [2] [%]	Drug uptake [3] [%]
C[C@@H]1CC[C@H]2[C@@H](CC(=O)O)C(=O)O[C@@H]3O[C@]4(C)CC[C@@H]1[C@]32OO4	54.23	33	33.92
C[C@@H]1CC[C@H]2[C@@H](CCCc3ccc(S(C)(=O)=O)cc3)C(=O)O[C@@H]3O[C@]4(C)CC[C@@H]1[C@]32OO4	61.9	33	38.53
C[C@@H]1CC[C@H]2[C@@H](CCCc3ccc(O)cc3)C(=O)O[C@@H]3O[C@]4(C)CC[C@@H]1[C@]32OO4.Cl	63.09	33	39.01
C[C@@H]1CC[C@H]2[C@@H](CCCc3cc(F)cc(F)c3)CO[C@@H]3O[C@]4(C)CC[C@@H]1[C@]32OO4	70.91	33	40.01
C[C@@H]1CC[C@H]2[C@@H](CCCc3cc(C(F)(F)F)cc(C(F)(F)F)c3)C(=O)O[C@@H]3O[C@]4(C)CC[C@@H]1[C@]32OO4	72.09	33	41.07
C[C@H]1C(=O)O[C@@H]2O[C@@]3(C)CC[C@@H]4[C@@]2(OO3)[C@H]1CC[C@]4(C)O	53.89	33	32.99
C[C@@H]1CC[C@H]2[C@@H](CCCc3cccc(Cl)c3)[C@H](O)O[C@@H]3O[C@]4(C)CC[C@@H]1[C@]32OO4	71.21	33	40.13
CCCC[C@H]1C(=O)O[C@@H]2O[C@]3(CC)CC[C@H]4[C@H](C)CC[C@@H]1[C@@]24OO3	62.5	33	39.11
C[C@@H]1[C@@H](OC(=O)Nc2cccc3ccccc23)C[C@H]2[C@@H](C)C(=O)O[C@@H]3O[C@]4(C)CC[C@@H]1[C@]32OO4	51.68	33	32.63
C[C@@H]1[C@@H](OC(=O)NC2CC2c2ccccc2)C[C@H]2[C@@H](C)C(=O)O[C@@H]3O[C@]4(C)CC[C@@H]1[C@]32OO4 (some centres undefined)	51.63	33	32.31
C[C@@H]1CC[C@H]2[C@@H](CCCc3ccc(N(C)C)cc3)C(=O)O[C@@H]3O[C@]4(C)CC[C@@H]1[C@]32OO4.Cl	51.92	33	32.82
C[C@@H]1CC[C@H]2[C@@H](CCCc3cc(C(F)(F)F)cc(C(F)(F)F)c3)CO[C@@H]3O[C@]4(C)CC[C@@H]1[C@]32OO4	72	33	42.11
C[C@@H]1CC[C@H]2CC(=O)O[C@@H]3O[C@]4(CCc5ccccc5)CC[C@@H]1[C@@]23OO4	62.34	33	38.96
CCCCCCCCCCCCCC[C@H]1C(=O)O[C@@H]2O[C@]3(C)CC[C@H]4[C@H](C)CC[C@@H]1[C@@]24O3	73	33	45.09
C[C@@H]1[C@@H](OC(=O)Nc2ccccc2)C[C@H]2[C@@H](C)C(=O)O[C@@H]3O[C@]4(C)CC[C@@H]1[C@]32OO4	51.04	33	32.18
C[C@@H]1[C@@H](O)C[C@H]2[C@@H](C)C(=O)O[C@@H]3O[C@]4(C)CC[C@@H]1[C@]32OO4	53.9	33	33.1
C[C@@H]1CC[C@H]2[C@@H](CCCc3cc(C(F)(F)F)cc(C(F)(F)F)c3)[C@H](O)O[C@@H]3O[C@]4(C)CC[C@@H]1[C@]32OO4	71.76	33	40.43
C[C@@H]1CC[C@H]2CC(=O)N(CCc3ccccc3)[C@@H]3O[C@]4(C)CC[C@@H]1[C@@]23OO4	61.8	33	38.43
C[C@@H]1CC[C@H]2[C@@H](CN3C(=O)CCC3=O)C(=O)O[C@@H]3O[C@]4(C)CC[C@@H]1[C@]32OO4	66.06	33	36.57
CC(C)CN1C(=O)C[C@@H]2CC[C@@H](C)[C@@H]3CC[C@]4(C)OO[C@@]23[C@H]1O4	61.51	33	35.17
C[C@@H]1CC[C@H]2CC(=O)O[C@@H]3O[C@]4(CC(=O)O)CC[C@@H]1[C@@]23OO4	54.51	33	34.03
C[C@@H]1CC[C@H]2[C@@H](C)C(=O)O[C@@H]3O[C@@]4(C)CC[C@@H]1[C@]32OO4 [ARTEMISININ]	61.07	33	34.68
C[C@@H]1CC[C@H]2[C@@H](CN3C(=O)CSC3=O)C(=O)O[C@@H]3O[C@]4(C)CC[C@@H]1[C@]32OO4	57.69	33	33.94
